For test [1], the system named is A549. Description: Cytotoxicity against human A549 cells after 24 hrs by MTT assay. The format is functional, cell-based. Conditions: A549, 24 h.
Test [2] deals with Receptor tyrosine-protein kinase erbB-2 (Homo sapiens, UniProt P04626). Description: Inhibition of recombinant human His-tagged HER2 cytoplasmic domain (676 to 1255 residues) expressed in baculovirus virus expression system after 1 hr by ELISA.
In test [3] the target is Epidermal growth factor receptor (Homo sapiens, UniProt P00533). Briefly: Inhibition of recombinant human GST-tagged EGFR cytoplasmic domain (668 to 1210 residues) expressed in baculovirus virus expression system after 1 hr by ELISA.
The test system of test [4] is A549. Briefly: Induction of apoptosis in human A549 cells assessed as increase in active caspase-3 level by immunoassay relative to control. The format is functional.

Receptor tyrosine-protein kinase erbB-2, sequence (P04626 whole entry, the tested form may be a part): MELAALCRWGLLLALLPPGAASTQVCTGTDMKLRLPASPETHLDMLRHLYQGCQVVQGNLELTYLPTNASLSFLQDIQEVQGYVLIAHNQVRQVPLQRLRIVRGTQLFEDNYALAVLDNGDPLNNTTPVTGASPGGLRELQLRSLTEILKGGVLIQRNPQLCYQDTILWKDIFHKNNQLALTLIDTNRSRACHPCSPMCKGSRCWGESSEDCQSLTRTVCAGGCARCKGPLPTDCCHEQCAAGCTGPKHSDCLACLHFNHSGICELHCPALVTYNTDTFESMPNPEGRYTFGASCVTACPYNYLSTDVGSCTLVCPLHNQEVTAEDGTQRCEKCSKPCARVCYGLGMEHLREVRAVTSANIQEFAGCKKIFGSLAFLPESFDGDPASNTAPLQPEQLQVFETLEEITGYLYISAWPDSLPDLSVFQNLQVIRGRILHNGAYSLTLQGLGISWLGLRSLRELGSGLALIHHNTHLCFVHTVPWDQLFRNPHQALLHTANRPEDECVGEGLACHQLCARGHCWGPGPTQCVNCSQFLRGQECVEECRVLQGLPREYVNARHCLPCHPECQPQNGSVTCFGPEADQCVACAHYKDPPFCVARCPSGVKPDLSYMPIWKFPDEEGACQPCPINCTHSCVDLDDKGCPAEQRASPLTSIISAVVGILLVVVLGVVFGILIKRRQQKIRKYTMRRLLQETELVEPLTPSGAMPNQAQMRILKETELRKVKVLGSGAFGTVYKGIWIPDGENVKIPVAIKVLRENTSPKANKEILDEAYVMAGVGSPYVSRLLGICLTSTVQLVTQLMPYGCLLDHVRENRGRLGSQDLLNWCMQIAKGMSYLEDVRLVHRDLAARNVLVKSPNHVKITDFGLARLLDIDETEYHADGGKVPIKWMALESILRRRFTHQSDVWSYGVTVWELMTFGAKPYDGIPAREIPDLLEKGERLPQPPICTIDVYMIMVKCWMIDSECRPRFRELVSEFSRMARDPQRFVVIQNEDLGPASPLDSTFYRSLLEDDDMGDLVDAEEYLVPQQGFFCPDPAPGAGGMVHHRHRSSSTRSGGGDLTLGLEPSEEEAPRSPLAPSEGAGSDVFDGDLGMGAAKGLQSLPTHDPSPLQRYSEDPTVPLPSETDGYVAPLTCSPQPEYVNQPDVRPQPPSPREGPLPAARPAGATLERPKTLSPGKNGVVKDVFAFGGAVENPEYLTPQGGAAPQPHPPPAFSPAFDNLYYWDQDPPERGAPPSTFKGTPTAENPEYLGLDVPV
Epidermal growth factor receptor, sequence (P00533 whole entry, the tested form may be a part): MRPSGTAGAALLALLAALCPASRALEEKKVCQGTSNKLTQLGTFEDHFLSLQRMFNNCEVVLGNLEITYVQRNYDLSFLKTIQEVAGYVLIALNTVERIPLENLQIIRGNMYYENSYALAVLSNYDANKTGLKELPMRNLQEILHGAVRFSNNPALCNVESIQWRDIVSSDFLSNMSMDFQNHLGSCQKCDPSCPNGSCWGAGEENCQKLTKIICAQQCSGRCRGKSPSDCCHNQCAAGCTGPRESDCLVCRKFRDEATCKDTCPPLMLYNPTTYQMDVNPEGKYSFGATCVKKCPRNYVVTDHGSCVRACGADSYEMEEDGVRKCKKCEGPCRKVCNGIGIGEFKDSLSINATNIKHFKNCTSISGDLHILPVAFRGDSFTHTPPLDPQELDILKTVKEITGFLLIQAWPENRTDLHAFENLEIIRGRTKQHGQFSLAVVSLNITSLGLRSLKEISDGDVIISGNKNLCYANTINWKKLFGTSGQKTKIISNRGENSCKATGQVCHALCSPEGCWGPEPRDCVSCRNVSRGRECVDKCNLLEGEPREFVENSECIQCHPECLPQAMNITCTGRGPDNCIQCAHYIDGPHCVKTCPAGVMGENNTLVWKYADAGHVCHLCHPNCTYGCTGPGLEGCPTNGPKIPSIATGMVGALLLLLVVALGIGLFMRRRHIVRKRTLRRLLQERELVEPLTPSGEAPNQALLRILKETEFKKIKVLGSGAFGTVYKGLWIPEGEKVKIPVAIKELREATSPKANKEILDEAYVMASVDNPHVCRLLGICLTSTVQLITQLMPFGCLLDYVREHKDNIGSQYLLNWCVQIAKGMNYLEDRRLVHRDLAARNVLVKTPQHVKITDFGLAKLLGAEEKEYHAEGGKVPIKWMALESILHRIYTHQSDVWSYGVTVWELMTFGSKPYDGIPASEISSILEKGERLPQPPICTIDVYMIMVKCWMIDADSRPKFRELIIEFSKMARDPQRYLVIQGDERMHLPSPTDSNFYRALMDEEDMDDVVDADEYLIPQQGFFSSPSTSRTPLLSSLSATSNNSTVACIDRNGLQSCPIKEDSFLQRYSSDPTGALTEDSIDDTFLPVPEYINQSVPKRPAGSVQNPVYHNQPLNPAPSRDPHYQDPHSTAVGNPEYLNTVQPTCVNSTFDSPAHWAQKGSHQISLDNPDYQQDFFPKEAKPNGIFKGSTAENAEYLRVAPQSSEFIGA

`NS(=O)(=O)c1ccc(-n2c(SCC(=O)Nc3cccnc3Cl)nc3cc4ccccc4cc3c2=O)cc1` displayed an IC50 in test [1] of 670 nM.
On the same count and under the same terms, the same measure for `NS(=O)(=O)c1ccc(-n2c(SCC(=O)Nc3cccnc3)nc3cc4ccccc4cc3c2=O)cc1`: 490 nM.
Same read-out and setting: with `NS(=O)(=O)c1ccc(-n2c(SCC(=O)NCc3ccc4c(c3)OCO4)nc3cc4ccccc4cc3c2=O)cc1` the figure was 1360 nM.
Consider `NS(=O)(=O)c1ccc(-n2c(SCC(=O)Nc3cnc4ccccc4c3)nc3cc4ccccc4cc3c2=O)cc1`, for which the IC50 in test [2] is 390 nM; in test [1], 120 nM; in test [3], 110 nM. Further, in test [4], the “fold change (FC)” value stood at 8.49.
In test [1], `NS(=O)(=O)c1ccc(-n2c(SCC(=O)Nc3c(Cl)cc(Cl)cc3Cl)nc3cc4ccccc4cc3c2=O)cc1` registered an IC50 of 1070 nM.
On the same count and under the same terms, with `NS(=O)(=O)c1ccc(-n2c(SCC(=O)Nc3ccccn3)nc3cc4ccccc4cc3c2=O)cc1` the figure was 3520 nM; with `NS(=O)(=O)c1ccc(-n2c(SCC(=O)Nc3ccc(Cl)cn3)nc3cc4ccccc4cc3c2=O)cc1`, 1020 nM.
Take `NS(=O)(=O)c1ccc(-n2c(SCC(=O)Nc3ccc([N+](=O)[O-])cc3[N+](=O)[O-])nc3cc4ccccc4cc3c2=O)cc1`: the IC50 in test [2] amounted to 300 nM; in test [1] it was 280 nM; in test [3], 60 nM. The “fold change (FC)” value in test [4] was 9.35.
Take `NS(=O)(=O)c1ccc(-n2c(SCC(=O)Nc3ccncc3)nc3cc4ccccc4cc3c2=O)cc1`: in test [1], the IC50 amounted to 500 nM.
Consider `NS(=O)(=O)c1ccc(-n2c(SCC(=O)Nc3cc(Cl)c(Cl)cc3Cl)nc3cc4ccccc4cc3c2=O)cc1`, for which the figures for the IC50 in test [2] and in test [1] were 760 nM and 290 nM, respectively. In addition, the “fold change (FC)” value in test [4] stood at 6.28.
`NS(=O)(=O)c1ccc(-n2c(SCC(=O)Nc3ccc(Br)cc3)nc3cc4ccccc4cc3c2=O)cc1`: in test [1], the IC50 amounted to 8700 nM.
On the same count and under the same terms, with `NS(=O)(=O)c1ccc(-n2c(SCC(=O)Nc3ccc(Br)cc3Br)nc3cc4ccccc4cc3c2=O)cc1` the figure was 1500 nM; with `NS(=O)(=O)c1ccc(-n2c(SCC(=O)Nc3ccccc3Cl)nc3cc4ccccc4cc3c2=O)cc1`, 1160 nM; with `Cc1cccc([N+](=O)[O-])c1NC(=O)CSc1nc2cc3ccccc3cc2c(=O)n1-c1ccc(S(N)(=O)=O)cc1`, 1480 nM.
`NS(=O)(=O)c1ccc(-n2c(SCC(=O)Nc3ccc(I)cc3)nc3cc4ccccc4cc3c2=O)cc1` gave an IC50 in test [1] of 2530 nM.

The values are drawn from ChEMBL document CHEMBL4130490, “Discovery of Benzo[g]quinazolin benzenesulfonamide derivatives as dual EGFR/HER2 inhibitors” (Eur J Med Chem, 2017).
